Experimental findings from US20130338106A1, “COMPOUNDS INHIBITING LEUCINE-RICH REPEAT KINASE ENZYME ACTIVITY” (priority 2011, published 2013) are described below.

T1 sequence (Q5S007 whole entry G2019S): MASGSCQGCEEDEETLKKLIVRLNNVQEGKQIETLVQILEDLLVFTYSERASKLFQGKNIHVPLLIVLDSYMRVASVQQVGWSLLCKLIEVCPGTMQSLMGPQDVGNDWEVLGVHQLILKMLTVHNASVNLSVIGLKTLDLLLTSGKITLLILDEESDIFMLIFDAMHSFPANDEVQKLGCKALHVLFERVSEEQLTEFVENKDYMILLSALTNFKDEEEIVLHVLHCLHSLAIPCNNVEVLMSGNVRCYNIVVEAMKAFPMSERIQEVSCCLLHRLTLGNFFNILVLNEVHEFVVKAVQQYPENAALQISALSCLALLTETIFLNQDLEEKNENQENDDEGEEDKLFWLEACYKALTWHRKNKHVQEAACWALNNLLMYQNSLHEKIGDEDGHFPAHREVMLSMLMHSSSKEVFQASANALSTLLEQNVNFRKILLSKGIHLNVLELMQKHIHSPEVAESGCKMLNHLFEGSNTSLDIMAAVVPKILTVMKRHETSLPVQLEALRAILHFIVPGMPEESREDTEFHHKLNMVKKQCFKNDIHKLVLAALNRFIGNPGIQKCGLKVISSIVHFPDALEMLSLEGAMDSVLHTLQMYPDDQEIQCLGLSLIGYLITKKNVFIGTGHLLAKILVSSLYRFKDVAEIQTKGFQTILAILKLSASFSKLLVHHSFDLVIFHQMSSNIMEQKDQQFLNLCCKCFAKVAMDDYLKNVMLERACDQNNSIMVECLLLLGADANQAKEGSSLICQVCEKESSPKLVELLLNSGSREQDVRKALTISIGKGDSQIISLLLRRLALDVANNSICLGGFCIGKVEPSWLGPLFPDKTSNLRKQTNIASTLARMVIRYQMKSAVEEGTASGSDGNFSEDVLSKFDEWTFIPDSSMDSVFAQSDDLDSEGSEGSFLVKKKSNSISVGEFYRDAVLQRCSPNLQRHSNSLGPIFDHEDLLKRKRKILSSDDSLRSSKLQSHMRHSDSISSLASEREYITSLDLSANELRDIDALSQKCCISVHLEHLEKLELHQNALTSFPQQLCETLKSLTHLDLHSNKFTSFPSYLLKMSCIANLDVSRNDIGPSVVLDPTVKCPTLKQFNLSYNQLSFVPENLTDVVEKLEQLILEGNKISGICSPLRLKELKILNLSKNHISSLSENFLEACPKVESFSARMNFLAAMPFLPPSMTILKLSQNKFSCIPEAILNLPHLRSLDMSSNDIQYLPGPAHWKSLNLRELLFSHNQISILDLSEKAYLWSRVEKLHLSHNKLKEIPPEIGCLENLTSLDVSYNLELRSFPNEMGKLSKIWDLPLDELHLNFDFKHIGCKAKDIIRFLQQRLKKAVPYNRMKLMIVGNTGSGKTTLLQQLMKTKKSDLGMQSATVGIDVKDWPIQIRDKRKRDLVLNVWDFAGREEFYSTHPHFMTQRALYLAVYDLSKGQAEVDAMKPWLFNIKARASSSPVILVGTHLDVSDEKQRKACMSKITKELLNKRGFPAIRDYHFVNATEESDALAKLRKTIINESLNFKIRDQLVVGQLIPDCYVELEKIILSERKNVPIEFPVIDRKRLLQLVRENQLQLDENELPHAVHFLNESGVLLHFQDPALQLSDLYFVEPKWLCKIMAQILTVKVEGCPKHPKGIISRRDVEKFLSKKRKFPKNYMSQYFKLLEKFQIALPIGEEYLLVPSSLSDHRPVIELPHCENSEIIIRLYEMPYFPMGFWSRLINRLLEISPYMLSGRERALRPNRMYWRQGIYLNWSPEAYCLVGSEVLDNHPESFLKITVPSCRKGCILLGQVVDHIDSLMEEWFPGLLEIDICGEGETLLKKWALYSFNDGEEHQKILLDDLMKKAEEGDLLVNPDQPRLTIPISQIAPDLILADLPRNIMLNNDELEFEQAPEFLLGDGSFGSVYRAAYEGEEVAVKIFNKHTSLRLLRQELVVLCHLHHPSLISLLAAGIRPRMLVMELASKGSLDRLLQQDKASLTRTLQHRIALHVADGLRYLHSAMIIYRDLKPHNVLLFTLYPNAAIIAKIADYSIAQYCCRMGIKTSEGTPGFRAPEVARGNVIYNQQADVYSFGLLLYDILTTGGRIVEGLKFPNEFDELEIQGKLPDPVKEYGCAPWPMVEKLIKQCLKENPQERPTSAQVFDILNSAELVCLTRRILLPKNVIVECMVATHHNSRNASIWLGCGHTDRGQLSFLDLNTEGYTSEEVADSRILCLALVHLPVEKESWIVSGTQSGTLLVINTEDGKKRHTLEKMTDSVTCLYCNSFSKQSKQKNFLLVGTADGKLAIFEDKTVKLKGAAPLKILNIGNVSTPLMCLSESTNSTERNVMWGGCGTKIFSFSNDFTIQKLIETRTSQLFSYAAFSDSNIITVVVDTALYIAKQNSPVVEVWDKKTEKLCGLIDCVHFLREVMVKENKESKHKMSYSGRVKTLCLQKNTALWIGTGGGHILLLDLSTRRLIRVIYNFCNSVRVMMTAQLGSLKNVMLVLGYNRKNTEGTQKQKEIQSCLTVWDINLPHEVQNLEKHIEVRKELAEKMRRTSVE

The assay addresses T1, LRRK2 G2019S mutant kinase (Homo sapiens, UniProt Q5S007, G2019S).
T1 construct: GST; purchased Invitrogen PV4882
The experiment in a line: LRRK2 G2019S LanthaScreen TR-FRET kinase assay. Conditions: LRRK2 G2019S GST-tagged protein, 100 μM ATP, LRRKtide substrate; read-out: IC50 (potency). Format: biochemical. Here is the method:
Activity of compounds against LRRK2 G2019S mutant kinase function was tested in a LANTHAScreen® assay as follows: Compounds were diluted in 100% DMSO to the desired test concentrations in white, low-volume 384-well plates (PerkinElmer ProxiPlate® PN: 6008280). TR-FRET kinase reactions (10 μL) were performed with 75 nM Fluorescein-ERM (LRRKtide, Invitrogen, PN:PV4901) substrate in a final assay buffer containing 100 μM ATP and 2 mM DTT diluted in commercially available Kinase Buffer S (Invitrogen PN: PV5213). The final solvent concentration in the assay was 1% DMSO. Reactions were initiated with the addition of 10 ng/well of LRRK2 02019S, GST-tagged protein (Invitrogen PN: PV4882). After incubation of the foil sealed reaction plates at room temperature with low speed mixing for 1 hour, the kinase reaction was stopped and the amount of substrate phosphorylation was detected by addition of 10 μL of 10 mM EDTA and 2 nM Tb-anti-pERM (pLRRKtide antibody, Invitrogen, PN: PV4898) antibody in TR-FRET dilution buffer (Invitrogen PN: PV3574). After a 30 minute incubation at room temperature with low speed mixing, foil seals were removed and measurements were obtained on a PerkinElmer EnVision with excitation 340 nm, emission 520 nm (channel 1): 495 nm (channel 2) settings. Generation of raw data and workup of data to derive the IC50 (potency) and maximal inhibition at concentrations tested were performed using Merck's Assay Data Analyzer (ADA) software.
A general note: TR-FRET usually uses a lanthanide donor and a delayed reading to cut background.
One may read the IC50 as the concentration at which inhibition is half-maximal. With `CC1(C)CC(=O)c2c(SCC(F)(F)F)sc(-c3cc[nH]n3)c2C1` [Example 29, 6,6-Dimethyl-1-(1H-pyrazol-3-yl)-3-[(2,2,2-trifluoroethyl)sulfanyl]-6,7-dihydro-2-benzothiophen-4(5H)-one], the IC50 came out at 250 nM. Turning to `CC1(C)CC(=O)c2c(NCCCCCCO)sc(-c3cc[nH]n3)c2C1` [Example 50, 3-[(6-Hydroxyhexyl)amino]-6,6-dimethyl-1-(1H-pyrazol-3-yl)-6,7-dihydro-2-benzothiophen-4(5H)-one], the IC50 is 180 nM.

Turning to `CC1(C)CC(=O)c2c(SC3CCCC3)sc(-c3ccn(C(=O)Cc4ccc(Cl)cc4)n3)c2C1` [Example 79, 1-{1-[(4-Chlorophenyl)acetyl]-1H-pyrazol-3-yl}-3-(cyclopentylsulfanyl)-6,6-dimethyl-6,7-dihydro-2-benzothiophen-4(5H)-one], the IC50 was 600 nM.

On to `CC1(C)CC(=O)c2c(SCCc3ccccc3)sc(-c3cc[nH]n3)c2C1` [Example 17, 6,6-Dimethyl-3-[(2-phenylethyl)sulfanyl]-1-(1H-pyrazol-3-yl)-6,7-dihydro-2-benzothiophen-4(5H)-one], for which the IC50 turned out to be 450 nM.

`CC1(C)CC(=O)c2c(SC3CCCC3)sc(-c3ccn(C(=O)c4ccc(F)cc4)n3)c2C1` [Example 81, 3-(Cyclopentylsulfanyl)-1-{1-[(4-fluorophenyl)carbonyl]-1H-pyrazol-3-yl}-6,6-dimethyl-6,7-dihydro-2-benzothiophen-4(5H)-one]: the IC50 was found to be 970 nM. As for `CC1(C)CC(=O)c2c(S(C)(=O)=O)sc(-c3cc[nH]n3)c2C1` [Example 6, 6,6-Dimethyl-3-(methylsulfonyl)-1-(1H-pyrazol-3-yl)-6,7-dihydro-2-benzothiophen-4(5H)-one], the figure is 2800 nM; as for `CC1(C)CC(=O)c2c(SCCCCCCO)sc(-c3cc[nH]n3)c2C1` [Example 19, 3-[(6-Hydroxyhexyl)sulfanyl]-6,6-dimethyl-1-(1H-pyrazol-3-yl)-6,7-dihydro-2-benzothiophen-4(5H)-one], 60 nM; as for `CC1(C)CC(=O)c2c(SC3CCCC3)sc(-c3ccn(C(=O)Nc4ccc(C(F)(F)F)cc4)n3)c2C1` [Example 59, 3-[3-(Cyclopentylsulfanyl)-6,6-dimethyl-4-oxo-4,5,6,7-tetrahydro-2-benzothiophen-1-yl]-N-[4-(trifluoromethyl)phenyl]-1H-pyrazole-1-carboxamide], 93 nM.

On to `COc1ccc(NC(=O)n2ccc(-c3sc(SC4CCCC4)c4c3CC(C)(C)CC4=O)n2)cc1` [Example 58, 3-[3-(Cyclopentylsulfanyl)-6,6-dimethyl-4-oxo-4,5,6,7-tetrahydro-2-benzothiophen-1-yl]-N-(4-methoxyphenyl)-1H-pyrazole-1-carboxamide], for which the IC50 came to 110 nM. On to `CC1(C)CC(=O)c2c(NC3CCCC3)sc(-c3ccn(C(=O)Nc4ccncc4)n3)c2C1` [Example 75, 3-[3-(Cyclopentylamino)-6,6-dimethyl-4-oxo-4,5,6,7-tetrahydro-2-benzothiophen-1-yl]-N-(pyridin-4-yl)-1H-pyrazole-1-carboxamide], for which the IC50 turned out to be 720 nM. As for `CN(C)CCSc1sc(-c2cc[nH]n2)c2c1C(=O)CC(C)(C)C2` [Example 13, 3-{[2-(Dimethylamino)ethyl]sulfanyl}-6,6-dimethyl-1-(1H-pyrazol-3-yl)-6,7-dihydro-2-benzothiophen-4(5H)-one], the IC50 was 520 nM.

`CC1(C)CC(=O)c2c(Oc3ccccc3)sc(-c3cc[nH]n3)c2C1` [Example 55, 6,6-Dimethyl-3-phenoxy-1-(1H-pyrazol-3-yl)-6,7-dihydro-2-benzothiophen-4(5H)-one]: the IC50 turned out to be 4200 nM.

Consider `O=C1CCCc2c(-c3ccn(C(=O)Nc4ccc(Cl)cc4)n3)sc(SC3CCCC3)c21` [Example 86, N-(4-chlorophenyl)-3-[3-(cyclopentylsulfanyl)-4-oxo-4,5,6,7-tetrahydro-2-benzothiophen-1-yl]-1H-pyrazole-1-carboxamide], for which the IC50 was 66 nM.

In the case of `CNC(=O)n1ccc(-c2sc(SC3CCCC3)c3c2CC(C)(C)CC3=O)n1` [Example 72, 3-[3-(Cyclopentylsulfanyl)-6,6-dimethyl-4-oxo-4,5,6,7-tetrahydro-2-benzothiophen-1-yl]-N-methyl-1H-pyrazole-1-carboxamide], the IC50 was determined as 1700 nM. In the case of `CC1(C)CC(=O)c2c(NCc3ccco3)sc(-c3cc[nH]n3)c2C1` [Example 44, 3-[(Furan-2-ylmethyl)amino]-6,6-dimethyl-1-(1H-pyrazol-3-yl)-6,7-dihydro-2-benzothiophen-4(5H)-one], the half-maximal inhibitory concentration (IC50) amounted to 380 nM. `O=C1CCCc2c(-c3cc[nH]n3)sc(SC3CCCC3)c21` [Example 3, 3-(Cyclopentylsulfanyl)-1-(1H-pyrazol-3-yl)-6,7-dihydro-2-benzothiophen-4(5H)-one]: the IC50 was 430 nM. Regarding `CC(O)CSc1sc(-c2cc[nH]n2)c2c1C(=O)CC(C)(C)C2` (stereo not shown) [Example 16, 3-[(2-Hydroxypropyl)sulfanyl]-6,6-dimethyl-1-(1H-pyrazol-3-yl)-6,7-dihydro-2-benzothiophen-4(5H)-one], the IC50 was determined as 220 nM.

On to `CC1(C)CC(=O)c2c(NC3CCCC3)sc(-c3cc[nH]n3)c2C1` [Example 49, 3-(Cyclopentylamino)-6,6-dimethyl-1-(1H-pyrazol-3-yl)-6,7-dihydro-2-benzothiophen-4(5H)-one], for which the IC50 was found to be 97 nM. As to `CC1(C)CC(=O)c2c(SCCCCCCN)sc(-c3cc[nH]n3)c2C1` [Example 24, 3-[(6-Aminohexyl)sulfanyl]-6,6-dimethyl-1-(1H-pyrazol-3-yl)-6,7-dihydro-2-benzothiophen-4(5H)-one], the IC50 came out at 70 nM. With `CC1(C)CC(=O)c2c(SCc3ccccc3)sc(-c3cc[nH]n3)c2C1` [Example 14, 3-(Benzylsulfanyl)-6,6-dimethyl-1-(1H-pyrazol-3-yl)-6,7-dihydro-2-benzothiophen-4(5H)-one] the figure was 860 nM; with `CC1(C)CC(=O)c2c(SC3CCCC3)sc(-c3ccn(C(=O)Nc4ccc(Cl)cc4)n3)c2C1` [Example 62, N-(4-Chlorophenyl)-3-[3-(cyclopentylsulfanyl)-6,6-dimethyl-4-oxo-4,5,6,7-tetrahydro-2-benzothiophen-1-yl]-1H-pyrazole-1-carboxamide], 86 nM; with `CSc1sc(-c2cc(C)[nH]n2)c2c1C(=O)CC(C)(C)C2` [Example 88, 6,6-Dimethyl-1-(5-methyl-1H-pyrazol-3-yl)-3-(methylsulfanyl)-6,7-dihydro-2-benzothiophen-4(5H)-one], 1400 nM. `CC1(C)CC(=O)c2c(N3CCC3)sc(-c3cc[nH]n3)c2C1` [Example 40, 3-(Azetidin-1-yl)-6,6-dimethyl-1-(1H-pyrazol-3-yl)-6,7-dihydro-2-benzothiophen-4(5H)-one]: the IC50 is 580 nM. As for `CCCC(=O)n1ccc(-c2sc(SC3CCCC3)c3c2CC(C)(C)CC3=O)n1` [Example 76, 1-(1-Butanoyl-1H-pyrazol-3-yl)-3-(cyclopentylsulfanyl)-6,6-dimethyl-6,7-dihydro-2-benzothiophen-4(5H)-one], the figure is 980 nM; as for `CN1CCN(CCCNc2sc(-c3cc[nH]n3)c3c2C(=O)CC(C)(C)C3)CC1` [Example 42, 6,6-Dimethyl-3-{[3-(4-methylpiperazin-1-yl)propyl]amino}-1-(1H-pyrazol-3-yl)-6,7-dihydro-2-benzothiophen-4(5H)-one], 420 nM; as for `CC1(C)CC(=O)c2c(NC3CCCC3)sc(-c3ccn(C(=O)Nc4ccc(C#N)cc4)n3)c2C1` [Example 74, N-(4-Cyanophenyl)-3-[3-(cyclopentylamino)-6,6-dimethyl-4-oxo-4,5,6,7-tetrahydro-2-benzothiophen-1-yl]-1H-pyrazole-1-carboxamide], 190 nM. As for `CC1(C)CC(=O)c2c(SC3CCCC3)sc(-c3ccn(C(=O)NCc4ccccc4)n3)c2C1` [Example 60, N-benzyl-3-[3-(Cyclopentylsulfanyl)-6,6-dimethyl-4-oxo-4,5,6,7-tetrahydro-2-benzothiophen-1-yl]-1H-pyrazole-1-carboxamide], the figure is 520 nM.

Consider `CCNc1sc(-c2cc[nH]n2)c2c1C(=O)CC(C)(C)C2` [Example 38, 3-(Ethylamino)-6,6-dimethyl-1-(1H-pyrazol-3-yl)-6,7-dihydro-2-benzothiophen-4(5H)-one], for which the IC50 was determined as 290 nM. With `CC1(C)CC(=O)c2c(SC3CCCC3)sc(-c3ccn(C(=O)NC4CCN(C(=O)C(F)(F)F)CC4)n3)c2C1` [Example 65, 3-[3-(Cyclopentylsulfanyl)-6,6-dimethyl-4-oxo-4,5,6,7-tetrahydro-2-benzothiophen-1-yl]-N-[1-(trifluoroacetyl)piperidin-4-yl]-1H-pyrazole-1-carboxamide], the IC50 stood at 330 nM. As for `CC(C)NC(=O)n1ccc(-c2sc(SC3CCCC3)c3c2CC(C)(C)CC3=O)n1` [Example 57], the IC50 came to 1400 nM. For `N#Cc1ccc(NC(=O)n2ccc(-c3sc(NC4CCCC4)c4c3CCCC4=O)n2)cc1` [Example 87, N-(4-cyanophenyl)-3-[3-(cyclopentylamino)-4-oxo-4,5,6,7-tetrahydro-2-benzothiophen-1-yl]-1H-pyrazole-1-carboxamide], the IC50 worked out at 330 nM.
